Test: molar heat capacity at constant pressure; xn = mol fraction of the nth substance listed
Conditions: 101 kPa, Small sample (50 mg) DSC

NCCCO [3-amino-1-propanol] + O
Conditions	molar heat capacity at constant pressure [J/K/mol]
125.42 K, Glass, x1 = 0.19	28.29
125.42 K, Glass, x1 = 0.26	32.2
126.01 K, Glass, x1 = 0.68	47.75
126.94 K, Glass, x1 = 0.19	29.15
127.1 K, Glass, x1 = 0.26	32.2
127.56 K, Glass, x1 = 0.16	28.24
127.59 K, Glass, x1 = 0.16	29.05
128.06 K, Glass, x1 = 0.68	51.16
129.29 K, Glass, x1 = 0.19	30.02
130.07 K, Glass, x1 = 0.26	33.19
130.83 K, Glass, x1 = 0.16	29.05
130.83 K, Glass, x1 = 0.68	52.29
131.76 K, Glass, x1 = 0.19	30.6
131.92 K, Glass, x1 = 0.26	33.19
132.24 K, Glass, x1 = 0.16	30.41
132.71 K, Glass, x1 = 0.68	52.86
133.95 K, Glass, x1 = 0.19	31.46
134.1 K, Glass, x1 = 0.16	30.14
134.11 K, Glass, x1 = 0.68	54
134.74 K, Glass, x1 = 0.26	34.17
135.04 K, Glass, x1 = 0.19	31.46
135.2 K, Glass, x1 = 0.26	33.85
136.92 K, Glass, x1 = 0.16	32.04
137.39 K, Glass, x1 = 0.68	54.57
138.63 K, Glass, x1 = 0.19	33.19
139.41 K, Glass, x1 = 0.26	35.49
140.66 K, Glass, x1 = 0.16	31.77
140.66 K, Glass, x1 = 0.68	56.27
141.59 K, Glass, x1 = 0.16	33.94
141.6 K, Glass, x1 = 0.19	33.48
141.75 K, Glass, x1 = 0.26	35.82
142.07 K, Glass, x1 = 0.68	56.27
143.47 K, Glass, x1 = 0.19	34.92
143.95 K, Glass, x1 = 0.16	32.58
143.95 K, Glass, x1 = 0.68	57.98
144.1 K, Glass, x1 = 0.26	36.47
144.88 K, Glass, x1 = 0.19	34.64
145.04 K, Glass, x1 = 0.26	36.8
146.28 K, Glass, x1 = 0.16	36.65
146.75 K, Glass, x1 = 0.68	56.84
148.16 K, Glass, x1 = 0.19	37.23
148.79 K, Glass, x1 = 0.26	39.1
150.53 K, Glass, x1 = 0.16	34.75
150.53 K, Glass, x1 = 0.68	60.25
150.98 K, Glass, x1 = 0.16	40.73
151.45 K, Glass, x1 = 0.68	57.98
151.46 K, Glass, x1 = 0.19	36.94
151.62 K, Glass, x1 = 0.26	39.1
152.86 K, Glass, x1 = 0.19	40.99
153.81 K, Glass, x1 = 0.16	36.65
153.82 K, Glass, x1 = 0.68	61.96
154.75 K, Glass, x1 = 0.19	38.39
154.91 K, Glass, x1 = 0.26	40.42
156.15 K, Glass, x1 = 0.68	60.25
160.4 K, Glass, x1 = 0.68	65.37
161.49 K, Glass, x1 = 0.26	45.02
163.69 K, Glass, x1 = 0.68	67.64
165.08 K, Liquid, x1 = 0.16	65.7
166.96 K, Liquid, x1 = 0.19	68.12
169.79 K, Liquid, x1 = 0.16	66.79
170.28 K, Liquid, x1 = 0.16	66.25
171.23 K, Liquid, x1 = 0.19	71.87
171.67 K, Liquid, x1 = 0.19	69.27
173.58 K, Liquid, x1 = 0.16	66.79
174.5 K, Liquid, x1 = 0.16	67.06
174.5 K, Liquid, x1 = 0.26	77.55
174.53 K, Liquid, x1 = 0.19	71.87
174.68 K, Liquid, x1 = 0.26	82.48
176.39 K, Liquid, x1 = 0.19	69.56
179.21 K, Liquid, x1 = 0.16	67.6
179.21 K, Liquid, x1 = 0.26	77.88
179.69 K, Liquid, x1 = 0.68	127.32
180.18 K, Liquid, x1 = 0.16	67.88
180.19 K, Liquid, x1 = 0.68	138.69
181.09 K, Liquid, x1 = 0.19	69.85
181.12 K, Liquid, x1 = 0.19	72.74
181.28 K, Liquid, x1 = 0.26	82.81
183.49 K, Liquid, x1 = 0.16	68.69
183.49 K, Liquid, x1 = 0.68	138.69
183.93 K, Liquid, x1 = 0.16	68.42
183.93 K, Liquid, x1 = 0.26	78.21
184.41 K, Liquid, x1 = 0.68	127.32
184.43 K, Liquid, x1 = 0.19	73.31
184.59 K, Liquid, x1 = 0.26	83.14
185.82 K, Liquid, x1 = 0.19	70.43
188.65 K, Liquid, x1 = 0.16	69.5
188.65 K, Liquid, x1 = 0.26	78.86
189.12 K, Liquid, x1 = 0.68	127.32
190.09 K, Liquid, x1 = 0.16	70.05
190.1 K, Liquid, x1 = 0.68	139.26
190.54 K, Liquid, x1 = 0.19	71.29
191.04 K, Liquid, x1 = 0.19	75.04
191.2 K, Liquid, x1 = 0.26	84.12
193.38 K, Liquid, x1 = 0.16	70.32
193.38 K, Liquid, x1 = 0.26	79.52
193.4 K, Liquid, x1 = 0.16	70.05
193.41 K, Liquid, x1 = 0.68	139.83
193.85 K, Liquid, x1 = 0.68	127.32
194.35 K, Liquid, x1 = 0.19	75.62
194.51 K, Liquid, x1 = 0.26	84.78
195.27 K, Liquid, x1 = 0.19	71.87
198.1 K, Liquid, x1 = 0.16	71.41
198.1 K, Liquid, x1 = 0.26	79.85
198.58 K, Liquid, x1 = 0.68	127.89
199.99 K, Liquid, x1 = 0.19	73.02
200.03 K, Liquid, x1 = 0.68	140.96
200.98 K, Liquid, x1 = 0.19	77.06
201.13 K, Liquid, x1 = 0.26	86.42
202.83 K, Liquid, x1 = 0.16	72.49
202.84 K, Liquid, x1 = 0.26	80.84
203.31 K, Liquid, x1 = 0.68	129.03
203.35 K, Liquid, x1 = 0.68	141.53
204.28 K, Liquid, x1 = 0.19	77.64
204.44 K, Liquid, x1 = 0.26	86.75
204.72 K, Liquid, x1 = 0.19	73.89
207.56 K, Liquid, x1 = 0.16	73.85
207.57 K, Liquid, x1 = 0.26	81.82
208.04 K, Liquid, x1 = 0.68	129.03
209.45 K, Liquid, x1 = 0.19	75.33
209.97 K, Liquid, x1 = 0.68	142.1
210.91 K, Liquid, x1 = 0.19	78.22
211.07 K, Liquid, x1 = 0.26	88.06
212.29 K, Liquid, x1 = 0.16	75.21
212.29 K, Liquid, x1 = 0.26	82.81
212.78 K, Liquid, x1 = 0.68	130.16
213.28 K, Liquid, x1 = 0.68	142.67
214.19 K, Liquid, x1 = 0.19	76.49
214.23 K, Liquid, x1 = 0.19	79.09
214.38 K, Liquid, x1 = 0.26	89.05
217.03 K, Liquid, x1 = 0.16	76.56
217.04 K, Liquid, x1 = 0.26	84.12
217.51 K, Liquid, x1 = 0.68	131.3
218.93 K, Liquid, x1 = 0.19	78.22
220.86 K, Liquid, x1 = 0.19	81.11
221.02 K, Liquid, x1 = 0.26	90.36
221.77 K, Liquid, x1 = 0.16	78.19
221.77 K, Liquid, x1 = 0.26	85.11
222.25 K, Liquid, x1 = 0.68	133
223.67 K, Liquid, x1 = 0.19	79.95
224.18 K, Liquid, x1 = 0.19	83.13
224.35 K, Liquid, x1 = 0.26	91.35
226.51 K, Liquid, x1 = 0.16	79.55
226.51 K, Liquid, x1 = 0.26	86.42
226.99 K, Liquid, x1 = 0.68	133.57
228.4 K, Liquid, x1 = 0.19	81.39
230.81 K, Liquid, x1 = 0.19	87.46
230.97 K, Liquid, x1 = 0.26	93.32
231.25 K, Liquid, x1 = 0.16	81.18
231.25 K, Liquid, x1 = 0.26	88.06
231.73 K, Liquid, x1 = 0.68	134.71
233.15 K, Liquid, x1 = 0.19	82.84
234.29 K, Liquid, x1 = 0.26	94.31
235.99 K, Liquid, x1 = 0.16	82.54
235.99 K, Liquid, x1 = 0.26	89.71
236.47 K, Liquid, x1 = 0.68	135.85
237.88 K, Liquid, x1 = 0.19	84.28
240.73 K, Liquid, x1 = 0.16	83.89
240.73 K, Liquid, x1 = 0.26	91.02
240.77 K, Liquid, x1 = 0.19	89.19
240.93 K, Liquid, x1 = 0.26	96.61
241.21 K, Liquid, x1 = 0.68	137.55
242.63 K, Liquid, x1 = 0.19	85.72
244.1 K, Liquid, x1 = 0.19	90.63
244.25 K, Liquid, x1 = 0.26	97.92
245.48 K, Liquid, x1 = 0.16	85.52
245.48 K, Liquid, x1 = 0.26	92.66
245.96 K, Liquid, x1 = 0.68	138.69
247.38 K, Liquid, x1 = 0.19	87.17
249.79 K, Liquid, x1 = 0.16	90.14
250.23 K, Liquid, x1 = 0.16	86.88
250.23 K, Liquid, x1 = 0.26	94.31
250.71 K, Liquid, x1 = 0.68	140.39
250.75 K, Liquid, x1 = 0.19	93.23
250.9 K, Liquid, x1 = 0.26	100.22
252.13 K, Liquid, x1 = 0.19	88.61
253.11 K, Liquid, x1 = 0.16	91.5
254.07 K, Liquid, x1 = 0.19	94.09
254.23 K, Liquid, x1 = 0.26	101.21
254.97 K, Liquid, x1 = 0.16	88.24
254.98 K, Liquid, x1 = 0.26	95.95
255.46 K, Liquid, x1 = 0.68	142.1
256.88 K, Liquid, x1 = 0.19	90.05
259.73 K, Liquid, x1 = 0.16	89.32
259.73 K, Liquid, x1 = 0.26	97.59
259.77 K, Liquid, x1 = 0.16	93.94
260.2 K, Liquid, x1 = 0.68	143.8
260.72 K, Liquid, x1 = 0.19	96.4
260.88 K, Liquid, x1 = 0.26	103.84
261.62 K, Liquid, x1 = 0.19	91.5
263.1 K, Liquid, x1 = 0.16	95.03
264.05 K, Liquid, x1 = 0.19	97.56
264.21 K, Liquid, x1 = 0.26	104.82
264.47 K, Liquid, x1 = 0.16	90.68
264.48 K, Liquid, x1 = 0.26	99.24
264.96 K, Liquid, x1 = 0.68	146.08
266.1 K, Liquid, x1 = 0.16	96.11
266.1 K, Liquid, x1 = 0.19	98.13
266.1 K, Liquid, x1 = 0.26	105.48
266.38 K, Liquid, x1 = 0.19	92.94
269.23 K, Liquid, x1 = 0.16	91.77
269.23 K, Liquid, x1 = 0.26	100.55
269.72 K, Liquid, x1 = 0.68	147.21
269.76 K, Liquid, x1 = 0.16	97.2
269.76 K, Liquid, x1 = 0.68	158.01
270.7 K, Liquid, x1 = 0.19	99.29
270.87 K, Liquid, x1 = 0.26	106.79
271.14 K, Liquid, x1 = 0.19	94.38
273.09 K, Liquid, x1 = 0.16	98.01
273.1 K, Liquid, x1 = 0.68	156.88
274.02 K, Liquid, x1 = 0.16	92.85
274.02 K, Liquid, x1 = 0.26	102.19
274.07 K, Liquid, x1 = 0.19	100.16
274.24 K, Liquid, x1 = 0.26	107.45
274.52 K, Liquid, x1 = 0.68	149.49
278.94 K, Liquid, x1 = 0.16	94.21
278.94 K, Liquid, x1 = 0.19	96.4
278.94 K, Liquid, x1 = 0.26	103.51
279.44 K, Liquid, x1 = 0.68	151.19
279.97 K, Liquid, x1 = 0.16	99.1
279.98 K, Liquid, x1 = 0.68	157.45
280.95 K, Liquid, x1 = 0.19	101.02
281.12 K, Liquid, x1 = 0.26	108.77
283.41 K, Liquid, x1 = 0.16	98.83
283.42 K, Liquid, x1 = 0.68	156.88
283.84 K, Liquid, x1 = 0.16	94.75
283.85 K, Liquid, x1 = 0.19	97.27
283.85 K, Liquid, x1 = 0.26	104.82
284.35 K, Liquid, x1 = 0.68	151.76
284.4 K, Liquid, x1 = 0.19	101.02
284.56 K, Liquid, x1 = 0.26	108.77

Source: the NIST ThermoML archive (doi:10.1016/j.tca.2015.02.020)
